Among the test systems are SNB-75 CNS; SK-MEL-2 melanoma; HS 578T breast; OVCAR-3 ovarian; NCI-H522 lung; EKVX NSCLC; IGROV1 ovarian; NCI/ADR-RES ovarian; OVCAR-5 ovarian; HCT-116 colon.
Holding throughout (experiment): NCI anticancer screen, dose series, 48 h

The text below walks through data of PubChem BioAssay (NCI).

Structures are written as SMILES. Where “and” joins values, the source holds several entries; their conditions need not be identical. Identical values can stand only once.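 Method: 48-hour compound exposure of cells in 96-well plates, five concentrations, linear interpolation of endpoints. At the GI50, growth is halved. TGI: total growth inhibition.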

`CCOC1OC(=O)[C@H]2[C@@H]1[C@@H]1CC[C@H]2O1` (stereo not given in full): the TGI with SNB-75 CNS, with SK-MEL-2 melanoma, with HS 578T breast, with OVCAR-3 ovarian, in the assay with NCI-H522 lung and with EKVX NSCLC was greater than 100 µM throughout. Further, the TGI with IGROV1 ovarian, with NCI/ADR-RES ovarian, with OVCAR-5 ovarian and with HCT-116 colon was greater than 100 µM each time. Also, the GI50 in the assay with SK-MEL-2 melanoma, in the assay with HS 578T breast, with OVCAR-3 ovarian, in the assay on NCI-H522 lung, in the assay on EKVX NSCLC and in the assay on IGROV1 ovarian was greater than 100 µM in each case. Further, the GI50 with NCI/ADR-RES ovarian, in the assay with OVCAR-5 ovarian and with HCT-116 colon was greater than 100 µM in each case.

Take `N/C(=N\c1nc2ccccc2s1)NC(=NC1CCCCC1)NC1CCCCC1`: the GI50 is 1.33 µM in the assay with SNB-75 CNS; 1.78 µM in the assay with SK-MEL-2 melanoma; 1.77 µM in the assay with HS 578T breast; 1.68 µM in the assay with OVCAR-3 ovarian; 1.89 µM in the assay with NCI-H522 lung; 1.51 µM with EKVX NSCLC. In addition, the GI50 was 1.46 µM with IGROV1 ovarian, 1.64 µM with NCI/ADR-RES ovarian, 1.62 µM with OVCAR-5 ovarian and 1.43 µM with HCT-116 colon. In addition, the TGI with SNB-75 CNS was 2.62 µM; with SK-MEL-2 melanoma it was 3.47 µM; in the assay with HS 578T breast, 3.89 µM; in the assay with OVCAR-3 ovarian, 3.17 µM; with NCI-H522 lung, 4.22 µM; in the assay with EKVX NSCLC, 2.93 µM. Also, the TGI was determined as 2.95 µM with IGROV1 ovarian, 3.3 µM in the assay with NCI/ADR-RES ovarian, 3.07 µM in the assay with OVCAR-5 ovarian and 3.01 µM in the assay with HCT-116 colon.

Regarding `O=C(Nc1cnc(C(F)(F)F)cn1)c1cc(Cl)ccc1O`, the GI50 in the assay with SNB-75 CNS was 0.194 µM; in the assay with SK-MEL-2 melanoma, 0.271 µM; in the assay on HS 578T breast, 0.335 µM; with OVCAR-3 ovarian, 0.279 µM; with NCI-H522 lung, 0.178 µM; in the assay on EKVX NSCLC, 0.228 µM. The GI50 in the assay with IGROV1 ovarian is 0.374 µM; in the assay on NCI/ADR-RES ovarian it was 0.279 µM; with OVCAR-5 ovarian, 0.343 µM; with HCT-116 colon it was 0.246 µM. Moreover, the TGI in the assay on SNB-75 CNS was 0.835 µM; with SK-MEL-2 melanoma, 0.84 µM; with HS 578T breast, 26.4 µM; in the assay on OVCAR-3 ovarian, 20.3 µM; in the assay on NCI-H522 lung it was 0.768 µM; in the assay on IGROV1 ovarian, greater than 100 µM. The TGI in the assay with NCI/ADR-RES ovarian was 13.6 µM; in the assay on OVCAR-5 ovarian, greater than 100 µM; with HCT-116 colon, 1.4 µM.

Turning to `COc1cccc2c1[C@H]1CO[C@H]3C4C[C@H](C(=O)O)C([C@@H](C2)N13)N4C` (stereo not given in full), the GI50 in the assay on SNB-75 CNS was 0.809 µM; in the assay with SK-MEL-2 melanoma, 0.245 µM; in the assay on NCI-H522 lung, 0.0497 µM; in the assay on EKVX NSCLC, 1.87 µM; in the assay with IGROV1 ovarian, 0.551 µM. The TGI in the assay on SNB-75 CNS was 4.85 µM and 3.53 µM; in the assay with SK-MEL-2 melanoma it was 2.11 µM and 0.655 µM; in the assay on HS 578T breast, 0.656 µM; in the assay with OVCAR-3 ovarian it was 2.99 µM and 3.94 µM; in the assay on NCI-H522 lung, 0.914 µM and 0.109 µM; with EKVX NSCLC, 5.94 µM and 6.16 µM. Besides, the TGI in the assay on IGROV1 ovarian was 9.94 µM and 1.59 µM; with NCI/ADR-RES ovarian, 7.74 µM; in the assay on OVCAR-5 ovarian, 4.94 µM and > 24.3 µM.

As to `Cn1nnc2c(C(N)=O)ncn2c1=O`, the TGI in the assay on SNB-75 CNS, in the assay with SK-MEL-2 melanoma, with HS 578T breast, in the assay on OVCAR-3 ovarian, in the assay on NCI-H522 lung and in the assay with EKVX NSCLC was greater than 100 µM throughout. The TGI in the assay on IGROV1 ovarian, in the assay on NCI/ADR-RES ovarian, in the assay on OVCAR-5 ovarian and in the assay with HCT-116 colon was greater than 100 µM throughout.

In the case of `COc1ccc2c(c1)C(=O)c1c-2c(N2CCNCC2)nc2ccccc12`, the GI50 is 10.9 µM in the assay on SNB-75 CNS; 4.62 µM in the assay on SK-MEL-2 melanoma; 5.15 µM with HS 578T breast; 13 µM with OVCAR-3 ovarian; 3.95 µM in the assay on NCI-H522 lung; 4.65 µM in the assay with EKVX NSCLC. Besides, the GI50 with IGROV1 ovarian is 2.37 µM; in the assay on NCI/ADR-RES ovarian it was 6.33 µM; with OVCAR-5 ovarian, 14.4 µM. Besides, the TGI with SNB-75 CNS stood at 26.5 µM; with SK-MEL-2 melanoma it was 21.2 µM; with HS 578T breast it was 20.9 µM; with OVCAR-3 ovarian, 30 µM; in the assay with NCI-H522 lung, 17 µM; in the assay on EKVX NSCLC it was 17.5 µM. Also, the values for the TGI in the assay on IGROV1 ovarian, with NCI/ADR-RES ovarian and with OVCAR-5 ovarian were 8.7 µM, 23.7 µM and 30.2 µM, respectively.

As for `Oc1c(Cl)cc(Cl)c2cccnc12`, the GI50 is 6.27 µM with SNB-75 CNS; 3.83 µM in the assay with SK-MEL-2 melanoma; 6.88 µM with HS 578T breast; 3.17 µM with OVCAR-3 ovarian; 1.83 µM in the assay with NCI-H522 lung; 2.9 µM in the assay with EKVX NSCLC. The GI50 was 3.72 µM in the assay with IGROV1 ovarian, 3.3 µM with NCI/ADR-RES ovarian, 8.71 µM in the assay with OVCAR-5 ovarian and 2.97 µM with HCT-116 colon. For the same compound, the TGI in the assay with SNB-75 CNS is greater than 100 µM; in the assay with SK-MEL-2 melanoma, 11.5 µM; with HS 578T breast it was greater than 100 µM; with OVCAR-3 ovarian, 11.6 µM; in the assay with NCI-H522 lung it was 4.85 µM; in the assay with EKVX NSCLC, 15.2 µM. Besides, the TGI with IGROV1 ovarian was 18.8 µM; with NCI/ADR-RES ovarian, greater than 100 µM; in the assay on OVCAR-5 ovarian it was 43.3 µM; in the assay on HCT-116 colon, 10.1 µM.

On to `Cc1cc(NC(=O)c2cnc(N3CCN(CCOCCOCCOCCOCCC(=O)N[C@H](C(=O)N4C[C@H](O)C[C@H]4C(=O)N[C@@H](C)c4ccc(-c5scnc5C)cc4)C(C)(C)C)CC3)cn2)c2ncccc2c1`, for which the GI50 in the assay with SNB-75 CNS was 2.1 µM; in the assay with SK-MEL-2 melanoma, 3.17 µM; with HS 578T breast, 2.59 µM; with OVCAR-3 ovarian, 2.13 µM; with NCI-H522 lung, 1.96 µM; in the assay with EKVX NSCLC it was 4.9 µM. The GI50 with IGROV1 ovarian is 2.39 µM; in the assay with NCI/ADR-RES ovarian, greater than 100 µM; in the assay on OVCAR-5 ovarian it was 14.9 µM; in the assay on HCT-116 colon it was 1.79 µM. Further, the TGI is 15 µM with SNB-75 CNS; 11 µM with SK-MEL-2 melanoma; 9.17 µM with HS 578T breast; 4.45 µM in the assay with OVCAR-3 ovarian; 6.16 µM with NCI-H522 lung; greater than 100 µM in the assay with EKVX NSCLC. The TGI was 8.17 µM in the assay on IGROV1 ovarian, greater than 100 µM in the assay on NCI/ADR-RES ovarian, 50.8 µM in the assay on OVCAR-5 ovarian and 3.38 µM in the assay on HCT-116 colon.
